Some results are limits rather than exact numbers.

Data on five compounds can be found in patent publication US7772187B2, “Substances directed against a specific sequence essential for heparanase catalytic activity and uses thereof as heparanase inhibitors” (Hadasit Medical Research Services and Development Company, …, priority 2004, dated 2010).

The target in assay [1] is T1, heparanase (Homo sapiens, UniProt Q9Y251).
T1 sequence (Q9Y251 36-543): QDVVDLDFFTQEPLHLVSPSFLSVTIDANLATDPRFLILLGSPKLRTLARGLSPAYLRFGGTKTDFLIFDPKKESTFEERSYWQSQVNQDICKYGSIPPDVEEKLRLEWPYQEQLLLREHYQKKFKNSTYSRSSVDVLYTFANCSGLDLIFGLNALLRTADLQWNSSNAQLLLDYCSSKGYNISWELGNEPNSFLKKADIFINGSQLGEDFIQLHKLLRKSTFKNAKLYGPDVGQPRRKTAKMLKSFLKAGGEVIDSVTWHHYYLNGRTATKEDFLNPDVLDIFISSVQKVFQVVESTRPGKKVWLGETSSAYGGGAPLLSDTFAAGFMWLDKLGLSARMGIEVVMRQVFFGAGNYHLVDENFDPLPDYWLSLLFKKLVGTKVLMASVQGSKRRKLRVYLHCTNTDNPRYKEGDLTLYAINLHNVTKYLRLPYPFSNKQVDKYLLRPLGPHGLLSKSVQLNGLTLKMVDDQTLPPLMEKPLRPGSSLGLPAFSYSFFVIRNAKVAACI
The note with it: literature (Miao 1999; Parish 1999; Vlodavsky 1994); cited from earlier work.

The test system of assay [2] is heparanase processing. As to the kind of experiment: Heparanase processing in heparanase-transfected cells (immunoblot with antibody #1453). It is filed as cell-based, human.
Description: Total cell lysates were immunoblotted with anti-heparanase antibody #1453.
Total cell lysates were then analyzed for heparanase processing by immunoblotting as above.
Total cell lysates were analyzed by immunoblotting as above.
Cell extracts were prepared using a lysis buffer containing 50 mM Tris-HCl, pH 7.4, 150 mM NaCl, 0.5% Triton X-100, supplemented with a cocktail of protease inhibitors (Roche, Indianapolis, Ind.). Protein concentration was determined (Bradford reagent, BioRad, Hercules, Calif.) and 30 μg protein was resolved by SDS-PAGE under reducing conditions using 10% gels. After electrophoresis, proteins were transferred to PVDF membrane (BioRad) and probed with the appropriate antibody followed by HRP-conjugated secondary antibody (Jackson ImmunoResearch, West Grove, Pa.) and an enhanced chemiluminescent substrate (Pierce).
The test system of assay [3] is heparanase processing. As to conditions: U87 glioma cells pre-treated with 100 μM for 2 hours.
Description: The latent 65 kDa heparanase protein was then added for the indicated time points and total cell lysates were analyzed for heparanase processing by immunoblotting as above.
Cells were then fixed and immunostained with anti heparanase monoclonal antibody (BD, upper panel) and anti heparanase (733, second panel) antibodies. Merge images are shown at the third panel.
For uptake studies, the 65 kDa heparanase precursor was added to confluent cell cultures at a concentration of 1 μg/ml under serum-free conditions. At the indicated time points, the medium was aspirated, cells were washed twice with ice-cold PBS and total cell lysates were prepared as described. Heparanase uptake and processing were analyzed by immunoblotting with antibody #1453.
Assay [4] relates to heparanase processing.
Excerpt: In order to further rule out the plasma membrane as the heparanase processing site, heparanase was targeted to the cell membrane by introducing the PDGF-R transmembrane domain at the heparanase C-terminus.
The target in assay [5] is T2, heparanase (Homo sapiens, UniProt Q9Y251).
T2 construct: a heterodimer composed of the 8 kDa polypeptide non-covalently associated with the 50 kDa heparanase subunit; ImClone Systems Inc. (gift of Dr Miao, not purchased)
T2 sequence (Q9Y251 158-543 limits assumed): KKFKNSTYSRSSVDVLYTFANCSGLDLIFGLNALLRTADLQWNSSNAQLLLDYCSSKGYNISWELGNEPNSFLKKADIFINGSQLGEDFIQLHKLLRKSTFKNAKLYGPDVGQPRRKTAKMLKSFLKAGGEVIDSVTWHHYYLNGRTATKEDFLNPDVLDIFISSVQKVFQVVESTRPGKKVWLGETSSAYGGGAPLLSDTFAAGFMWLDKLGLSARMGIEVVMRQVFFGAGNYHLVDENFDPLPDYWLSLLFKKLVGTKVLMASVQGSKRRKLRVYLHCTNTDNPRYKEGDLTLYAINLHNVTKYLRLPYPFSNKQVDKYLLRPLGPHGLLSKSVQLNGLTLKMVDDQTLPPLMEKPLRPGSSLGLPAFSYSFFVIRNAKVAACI
T2 sequence (Q9Y251 36-109 partner limits assumed): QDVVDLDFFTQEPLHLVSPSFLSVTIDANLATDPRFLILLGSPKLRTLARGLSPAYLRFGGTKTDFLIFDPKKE
As to the kind of experiment: Heparanase activity assay, purified/recombinant active heparanase on 35S-labeled ECM. In kind it is biochemical. The note with it: recombinant active heparanase 40 ng, 2 h, pH 7, 10 μg or 25 μg peptide, dose dependent, versus scrambled peptide. The protocol:
FIG. 6A. Purified, active heparanase (20 ng) was added to 1 ml RPMI medium and incubated with affinity-purified antibody #733 (10 μg, ▴), or rabbit IgG (♦) for 1 hour on ice, followed by 1 hour incubation with ^35S-labeled ECM. Heparanase activity was determined as described in ‘Experimental procedures’.
A Purified, recombinant active heparanase (40 ng) was incubated (2 h, pH 7) with 10 μg (▴) or 25 μg (▪) of a peptide containing the amino acid sequence of residues 158 to 171, or with a control, scrambled, peptide (♦). Note a dose-responsive inhibition of heparanase activity upon treatment with the 158-171 peptide.
Preparation of ECM-coated dishes and determination of heparanase activity were performed as described in detail elsewhere [Vlodavsky, I. Current protocols in Cell Biology Vol. 1 pp. 10.14.11-10.14.14, John Wiley & Sons, New York (1999b); Goldshmidt, O. et al., J. Biol. Chem. 276, 29178-29187 (2001); Goldshmidt (2002) ibid.]. […]
To further investigate the importance of this sequence in heparanase catalytic activity, competition experiments were next performed. In these experiments, recombinant active heparanase (40 ng) was incubated (2 h, pH 7) with different concentrations of a peptide containing the amino acid sequence of residues 158 to 171, or with a control scrambled peptide (Scr), and enzymatic activity was determined. […]

Turning to laminaran sulfate, at heparanase [1], the “inhibition of heparanase activity” value is on record as “inhibit heparanase activity”.

Turning to `CCN(CC)CCCC(C)Nc1ccnc2cc(Cl)ccc12` (stereo not shown) [chloroquine], the “reversibility of the inhibition of heparanase processing” value in the assay on heparanase processing [2] (heparanase-transfected C6 glioma cells, 50 μM 20 hours, then 24 hours chase in chloroquine-free medium) is listed as “reversible”. In the assay on heparanase processing [2] (heparanase-transfected HEK-293, MDA-435, C6 and NMU cells, increasing concentrations, 20 hours, dose dependent), the “inhibition of heparanase processing” value is on record as “completely inhibited”. Further, the “inhibition of processing of exogenously-added heparanase” value in the assay on heparanase processing [3] is recorded as “completely inhibited”. For the same compound, the “inhibition of processing of membrane-targeted heparanase” value with heparanase processing [4] was “completely abolished”.

As for PI-88, the “inhibition of heparanase activity” value on heparanase [1] is given as “inhibit heparanase activity”.

Consider “KKFKNSTYSRSSVD (listed as Homo sapiens) [synthetic peptide of residues Lys158-Asp171 of human heparanase]”, for which the “inhibition of heparanase enzymatic activity” value in the assay with heparanase [5] is reported as “significantly inhibited”; in the assay with heparanase [5] (listed as Synthetic Peptide Comprising Amino Acid Residues 158 to 171 of Heparanase) it was “Completely Blocks”.

Turning to `CO/C1=C\C(C)=C\[C@@H](C)[C@@H](O)[C@@H](C)C/C(C)=C/C=C/[C@H](OC)[C@@H]([C@@H](C)[C@@H](O)[C@H](C)[C@@]2(O)C[C@@H](O)[C@H](C)[C@@H](C(C)C)O2)OC1=O` [bafilomycin A1], in the assay on heparanase processing [2] (heparanase-transfected C6 glioma and NMU cells, indicated concentration (nM), 20 hours), the “inhibition of heparanase processing” value is listed as “complete inhibition”. The “concentration that completely inhibited heparanase processing” value in the assay on heparanase processing [2] (transfected C6 glioma and NMU cells, 20 hours) is listed as not above 250 nM.
